{"source": "patent US20230134859A1", "about": "“METHOD FOR SCREENING FOR, METHOD FOR PRODUCING, AND METHOD FOR DESIGNING DRUG ACTIVE INGREDIENTS” (SKY PHARMA CO., LTD., priority 2020, published 2023)", "system": "T-cell type acute lymphocytic leukemia model", "test": "Test Example 10: verification of anticancer effect in T-cell type acute lymphocytic leukemia model", "type": "in vivo, zebrafish", "experimental": "T-cell type acute lymphocytic leukemia model specifically expressing GFP in vascular endothelial cells\nA liquid agent prepared by adding a compound to E3 Ringer to adjust to 100 μM was microscopically injected into the body ventral main vessel of an embryo of a T cell-type acute lymphatic leukemia model individual 24 hours after fertilization. E3 Ringer was similarly microscopically injected as a control. At the time of microinjection, embryos were held on the body side up in a 3% methylcellulose/E3 Ringer/0.02% tricaine solution on a glass slide, and then a glass capillary was inserted into an abdominal main vessel running in the head-to-tail direction at the boundary between the body wall and egg yolk. Then, a nitrogen gas pressure (15 picosiemens) was applied for 30 to 45 milliseconds, and the mixture was injected into the blood vessel. At this time, 0.025% (final concentration) phenol red was mixed as a tracer of the injection solution. The amount to be injected was adjusted by applying gas pressure in a pulsed manner until a large blood vessel of the whole body became uniform and thin red due to blood flow. […]\nIn addition, survival rates of drug-injected individuals and control individuals were counted. […]", "data": [{"smiles": "CNS(=O)(=O)c1ccccc1Nc1nc(Nc2ccc(N3CCN(C)CC3)cc2OC)ncc1Cl", "note": "[Compound 7, 2-[[5-Chloro-2-[2-methoxy-4-(4-methylpiperazin-1-yl)anilino]pyrimidin-4-yl]amino]-N-methylbenzenesulfonamide]", "values": [{"measurement": "thickening and tumorigenesis of vascular endothelium", "setting": "100 μM injected into ventral main vessel at 24, 36 and 48 h after fertilization, observed at 56 h, vs control", "result": "thickening and tumorigenesis of the endothelium were observed"}, {"measurement": "survival rate on Day 28", "setting": "leukemia model individuals injected with 100 μM, three tests, control 22.4%±4.56", "result": "55.9%±6.07"}]}]}
